From publication PMC4515243, “Phase 1 pharmacokinetic study of the oral pan-AKT inhibitor MK-2206 in Japanese patients with advanced solid tumors” (Cancer Chemotherapy and Pharmacology, 2015)
Like-named read-outs stand apart in the source and are kept apart here.

Key:
AKT3 = system: AKT3; design: method as in ref 3 = [3]; 3. Yan L (2009) MK-2206: a potent oral allosteric AKT inhibitor [abstract #DDT01-1]. In: Proceedings of the 100th annual meeting of the American association for cancer research, Denver, CO, 18–22 Apr; conditions: purified recombinant AKT3, in vitro; cited from earlier work
[1] = plasma pharmacokinetics in Japanese patients (HPLC-MS/MS); assay type: in vivo, human; conditions: for AUC(0-t) / concentration at 48 h / Cmax / Tmax / half-life: human, plasma, oral; for half-life: read-out: Apparent terminal t½ (converted)
Method: Blood samples for the QOD dosing schedule were collected for PK analyses just before and 2, 4, 6, 10, 24, and 48 h after MK-2206 dosing on days 1 and 27 of Cycle 1. After the final dose of MK-2206 during Cycle 1, blood samples were drawn 96, 144, and 192 h postdose during the 1-week rest period. Samples were also drawn directly before MK-2206 treatment on days 7, 15, and 21. Blood samples for the QW dosing schedule were collected for PK analyses just before and 2, 4, 6, 10, 24, 48, and 96 h after MK-2206 dosing on days 1 and 22 of Cycle 1. After the final dose of MK-2206 in Cycle 1, blood samples were drawn 168 and 240 h postdose during the 1-week rest period. Samples were also drawn directly before MK-2206 treatment on days 8 and 15. The blood samples were centrifuged, and the plasma was separated and stored at −20 °C. The plasma concentrations were analyzed using high-performance liquid chromatography with tandem mass spectroscopy (HPLC–MS/MS) at Merck Research Labs, West Point, PA.
PK differences were observed after exposure to MK-2206 in Japanese patients, compared with non-Japanese patients. Consequently, the PK data were analyzed using t tests and nonparametric Wilcoxon–Mann–Whitney tests because of potential differences in variance. […] No differences in Tmax were observed.

[2] = non-Japanese patients; cited from earlier work
AKT2 = system: AKT2; design: method as in ref 3 = [3]; 3. Yan L (2009) MK-2206: a potent oral allosteric AKT inhibitor [abstract #DDT01-1]. In: Proceedings of the 100th annual meeting of the American association for cancer research, Denver, CO, 18–22 Apr; conditions: purified recombinant AKT2, in vitro; cited from earlier work
[3] = system: non-Japanese patients with advanced solid tumors; conditions: cited from earlier work

SMILES: NC1(c2ccc(-c3nc4ccn5c(=O)[nH]nc5c4cc3-c3ccccc3)cc2)CCC1 [MK-2206]
- IC50 (AKT3): 65 nM
- Tmax First dose ([1]; 45 mg QOD (n = 3), Day 1, median (min–max)): 4.0 (4.0–6.0) h
- Apparent terminal t½ ([1]; 45 mg QOD (n = 3), harmonic mean ± pseudo SD): 79.6 ± 8.5 h
- GMR C48-h ([1]; 45 mg QOD, geometric mean ratio CDay27/CDay1): 5.02
- Tmax Last dose ([1]; 60 mg QOD (n = 9), Day 27, median (min–max)): 6.0 (2.0–10.0) h
- GMR C48-h ([1]; 60 mg QOD, geometric mean ratio CDay27/CDay1): 3.68
- GMR C48-h ([1]; 135 mg QW, geometric mean ratio CDay22/CDay1): 1.25
- GMR C48-h ([1]; 200 mg QW, geometric mean ratio CDay22/CDay1): 1.78
- mean exposure values (Cmax and AUC), Japanese versus non-Japanese patients ([1]; 45- and 60-mg QOD and 200-mg QW cohorts, higher): 1.4–1.9 fold
- mean exposure values (Cmax and AUC), Japanese versus non-Japanese patients ([1]; 135-mg QW cohort, lower): 0.7–1.3
- AUC, Cmax and Ctrough versus non-Japanese patients ([1]; 200-mg QW cohort, P < 0.05): significantly higher
- AUC(0-t) ([1]; 45 mg, 45 mg QOD (n = 3), Day 1, AUC0–48h, geometric mean (coefficient of variation), read-out: AUCt First dose): 1.85 µM·h
- concentration at 48 h ([1]; 45 mg, 45 mg QOD (n = 3), Day 1, geometric mean (coefficient of variation), read-out: C48-h First dose): 28.8 nM
- Cmax ([1]; 45 mg, 45 mg QOD (n = 3), Day 1, geometric mean (coefficient of variation), read-out: Cmax First dose): 60.5 nM
- AUC(0-t) ([1]; 45 mg, 45 mg QOD (n = 3), Day 27, AUC0–48h, geometric mean (coefficient of variation), read-out: AUCt Last dose): 8.49 µM·h
- concentration at 48 h ([1]; 45 mg, 45 mg QOD (n = 3), Day 27, geometric mean (coefficient of variation), read-out: C48-h Last dose): 144 nM
- Cmax ([1]; 45 mg, 45 mg QOD (n = 3), Day 27, geometric mean (coefficient of variation), read-out: Cmax Last dose): 214 nM
- AUC(0-t) ([1]; 60 mg, 60 mg QOD (n = 9), Day 1, AUC0–48h, geometric mean (coefficient of variation), read-out: AUCt First dose): 2.72 µM·h
- concentration at 48 h ([1]; 60 mg, 60 mg QOD (n = 9), Day 1, geometric mean (coefficient of variation), read-out: C48-h First dose): 40.6 nM
- Cmax ([1]; 60 mg, 60 mg QOD (n = 9), Day 1, geometric mean (coefficient of variation), read-out: Cmax First dose): 95.9 nM
- AUC(0-t) ([1]; 60 mg, 60 mg QOD (n = 9), Day 27, AUC0–48h, geometric mean (coefficient of variation), read-out: AUCt Last dose): 9.69 µM·h
- concentration at 48 h ([1]; 60 mg, 60 mg QOD (n = 9), Day 27, geometric mean (coefficient of variation), read-out: C48-h Last dose): 152 nM
- Cmax ([1]; 60 mg, 60 mg QOD (n = 9), Day 27, geometric mean (coefficient of variation), read-out: Cmax Last dose): 277 nM
- Tmax ([1]; 60 mg, QOD dosing (45 or 60 mg), Japanese patients, read-out: median Tmax): 4 to 6 h
- AUC(0-t) ([1]; 135 mg, 135 mg QW (n = 3), Day 1, AUC0–168h, geometric mean (coefficient of variation), read-out: AUCt First dose): 9.68 µM·h
- concentration at 48 h ([1]; 135 mg, 135 mg QW (n = 3), Day 1, geometric mean (coefficient of variation), read-out: C48-h First dose): 83.2 nM
- Cmax ([1]; 135 mg, 135 mg QW (n = 3), Day 1, geometric mean (coefficient of variation), read-out: Cmax First dose): 234 nM
- AUC(0-t) ([1]; 135 mg, 135 mg QW (n = 3), Day 22, AUC0–168h, geometric mean (coefficient of variation), read-out: AUCt Last dose): 12.8 µM·h
- concentration at 48 h ([1]; 135 mg, 135 mg QW (n = 3), Day 22, geometric mean (coefficient of variation), read-out: C48-h Last dose): 104 nM
- Cmax ([1]; 135 mg, 135 mg QW (n = 3), Day 22, geometric mean (coefficient of variation), read-out: Cmax Last dose): 244 nM
- AUC(0-t) ([1]; 135 mg, 135 mg QW, Day 22, read-out: AUC0–48h): 12.8 µM·h
- AUC(0-t) ([1]; 200 mg, 200 mg QW (n = 9), Day 1, AUC0–168h, geometric mean (coefficient of variation), read-out: AUCt First dose): 24.3 µM·h
- concentration at 48 h ([1]; 200 mg, 200 mg QW (n = 9), Day 1, geometric mean (coefficient of variation), read-out: C48-h First dose): 186 nM
- Cmax ([1]; 200 mg, 200 mg QW (n = 9), Day 1, geometric mean (coefficient of variation), read-out: Cmax First dose): 439 nM
- AUC(0-t) ([1]; 200 mg, 200 mg QW (n = 9), Day 22, AUC0–168h, geometric mean (coefficient of variation), read-out: AUCt Last dose): 37.6 µM·h
- concentration at 48 h ([1]; 200 mg, 200 mg QW (n = 9), Day 22, geometric mean (coefficient of variation), read-out: C48-h Last dose): 302 nM
- Cmax ([1]; 200 mg, 200 mg QW (n = 9), Day 22, geometric mean (coefficient of variation), read-out: Cmax Last dose): 571 nM
- Tmax ([1]; 200 mg, 200 mg QW (n = 9), Day 22, median (min–max), read-out: Tmax Last dose): 5 h
- AUC(0-t) ([1]; 200 mg, 200 mg QW, Day 22, read-out: AUC0–48h): 37.6 µM·h
- Tmax ([1]; 200 mg, QW dosing (135 and 200 mg), Japanese patients, read-out: median Tmax): 4 to 6 h
- half-life ([1]; 60 mg QOD (n = 9), harmonic mean ± pseudo SD): 71.8 ± 8.9 h
- half-life ([1]; 135 mg QW (n = 3), harmonic mean ± pseudo SD): 69.3 ± 8.9 h
- half-life ([1]; 200 mg QW (n = 9), harmonic mean ± pseudo SD): 75.6 ± 9.7 h
- apparent terminal half-life (t½) [2]: 60 to 90 h
- terminal elimination half-life [2]: 60 to 80 h
- IC50 (AKT2): 12 nM
- patients who experienced a DLT ([3]; 60 mg QOD, grade 3 skin rash): One of 20
- patients who experienced a DLT, percent ([3]; 60 mg QOD): 5.0%
- patients who experienced DLTs ([3]; 200 mg QW, grade 3 skin rash (three), grade 3 dermatitis acneiform (one)): Four of 17
- patients who experienced DLTs, percent ([3]; 200 mg QW): 23.5%
- maximum tolerated dose (MTD) ([3]; QOD dosing schedule): 60 mg/day
- maximum tolerated dose (MTD) ([3]; QW dosing schedule): 200 mg/day
